For assay [1], the target named is T1, hNav1.7 (Homo sapiens (Human), UniProt Q15858). Briefly: Tritiated compound binding to membranes from cells heterologously expressing hNav1.7 and the β1 subunit (Nav1.7 LBA). Conditions: competitive binding vs [3H]compound, membranes with hNav1.7 and β1 subunit; read-out: Nav1.7 LBA EVO IC50. Here is the method:
Example 93A. Tritiated Compound Binding to Membranes Isolated from Cells that Heterologously Express hNav1.7 and the β1 Subunit
Preparation of membranes containing recombinantly expressed sodium channels: Frozen recombinant cell pellets are thawed on ice and diluted to 4 times the cell pellet weight with ice cold 50 mM Tris HCl, pH 7.4 buffer. The cell suspensions are homogenized on ice using a motorized glass dounce homogeniser. Homogenates are further diluted 8.4 times with ice cold 50 mM Tris HCl, pH 7.4 buffer and then centrifuged at 200×g at 4° C. for 15 minutes. The supernatants are collected and centrifuged at 10000×g at 4° C. for 50 min. The pellets are then re-suspended in 100 mM NaCl, 20 mM Tris HCl, pH 7.4 buffer containing 1% v/v protease inhibitors (Calbiochem) and re-homogenized on ice. The homogenized membranes are then processed through a syringe equipped with a 26 gauge needle. Protein concentrations arer determined by Bradford Assay and the membranes are stored at −80° C.
Saturation experiments. A competitive NaV1.7 inhibitor having a methyl group is tritiated. Three tritiums are incorporated in place of methyl hydrogens to generate [^3H]compound. Binding of this radioligand is performed in 5 mL borosilicate glass test tubes at room temperature. Binding is initiated by adding membranes to increasing concentrations of [^3H]compound in 100 mM NaCl, 20 mM Tris HCl, pH 7.4 buffer containing 0.01% w/v bovine serum albumin (BSA) for 18 h. Non-specific binding is determined in the presence of 1 μM unlabeled compound. After 18 h, the reactants are filtered through GF/C glass fiber filters presoaked in 0.5% w/v polyethylene imine. Filters are washed with 15 mL ice cold 100 mM NaCl, 20 mM Tris HCl, pH7.4 buffer containing 0.25% BSA to separate bound from free ligand. [^3H]compound bound to filters is quantified by liquid scintillation counting.
Binding reactions are performed in 96-well polypropylene plates at room temperature for 18 h. In 360 μL, membranes are incubated with […] [^3H]compound and increasing concentrations of Test Compound. Non-specific binding is defined in the presence of 1 μM unlabeled compound. Reactions are transferred and filtered through 96-well glass fiber/C filter plates presoaked with 0.5% polyethylene imine. The filtered reactions are washed 5 times with 200 μL ice cold buffer containing 0.25% BSA. Bound radioactivity is determined by liquid scintillation counting.
Data Analysis: For saturation experiments, non-specific binding is subtracted from total binding to provide specific binding and these values are recalculated in terms of pmol ligand bound per mg protein. Saturation curves are constructed and dissociation constants are calculated using the single site ligand binding model: Beq=(Bmax*X)/(X+Kd), where Beq is the amount of ligand bound at equilibrium, Bmax is the maximum receptor density, Kd is the dissociation constant for the ligand, and X is the free ligand concentration. For competition studies percent inhibition is determined and IC50 values are calculated using a 4 parameter logistic model (% inhibition=(A+((B−A)/(1+((x/C)^D)))) using XLfit, where A and B are the maximal and minimum inhibition respectively, C is the IC50 concentration and D is the (Hill) slope.
Example 93B. Tritiated Compound Binding to Membranes Isolated from Cells that Heterologous Express hNav1.7 and the β1 Subunit
Following the procedure described in Example 93A, and making modifications as required to: centrifuge supernatants at 100000×g instead of 10000×g; re-suspend pellets in a buffer containing 0.01% BSA in addition to 100 mM NaCl, 20 mM Tris HCl, pH 7.4 buffer, and 1% v/v proteasome inhibitors; and storing membranes at −80° C. in single use aliquots instead of pooled. […]
Target sequence in this assay (Q15858 whole entry, looked up): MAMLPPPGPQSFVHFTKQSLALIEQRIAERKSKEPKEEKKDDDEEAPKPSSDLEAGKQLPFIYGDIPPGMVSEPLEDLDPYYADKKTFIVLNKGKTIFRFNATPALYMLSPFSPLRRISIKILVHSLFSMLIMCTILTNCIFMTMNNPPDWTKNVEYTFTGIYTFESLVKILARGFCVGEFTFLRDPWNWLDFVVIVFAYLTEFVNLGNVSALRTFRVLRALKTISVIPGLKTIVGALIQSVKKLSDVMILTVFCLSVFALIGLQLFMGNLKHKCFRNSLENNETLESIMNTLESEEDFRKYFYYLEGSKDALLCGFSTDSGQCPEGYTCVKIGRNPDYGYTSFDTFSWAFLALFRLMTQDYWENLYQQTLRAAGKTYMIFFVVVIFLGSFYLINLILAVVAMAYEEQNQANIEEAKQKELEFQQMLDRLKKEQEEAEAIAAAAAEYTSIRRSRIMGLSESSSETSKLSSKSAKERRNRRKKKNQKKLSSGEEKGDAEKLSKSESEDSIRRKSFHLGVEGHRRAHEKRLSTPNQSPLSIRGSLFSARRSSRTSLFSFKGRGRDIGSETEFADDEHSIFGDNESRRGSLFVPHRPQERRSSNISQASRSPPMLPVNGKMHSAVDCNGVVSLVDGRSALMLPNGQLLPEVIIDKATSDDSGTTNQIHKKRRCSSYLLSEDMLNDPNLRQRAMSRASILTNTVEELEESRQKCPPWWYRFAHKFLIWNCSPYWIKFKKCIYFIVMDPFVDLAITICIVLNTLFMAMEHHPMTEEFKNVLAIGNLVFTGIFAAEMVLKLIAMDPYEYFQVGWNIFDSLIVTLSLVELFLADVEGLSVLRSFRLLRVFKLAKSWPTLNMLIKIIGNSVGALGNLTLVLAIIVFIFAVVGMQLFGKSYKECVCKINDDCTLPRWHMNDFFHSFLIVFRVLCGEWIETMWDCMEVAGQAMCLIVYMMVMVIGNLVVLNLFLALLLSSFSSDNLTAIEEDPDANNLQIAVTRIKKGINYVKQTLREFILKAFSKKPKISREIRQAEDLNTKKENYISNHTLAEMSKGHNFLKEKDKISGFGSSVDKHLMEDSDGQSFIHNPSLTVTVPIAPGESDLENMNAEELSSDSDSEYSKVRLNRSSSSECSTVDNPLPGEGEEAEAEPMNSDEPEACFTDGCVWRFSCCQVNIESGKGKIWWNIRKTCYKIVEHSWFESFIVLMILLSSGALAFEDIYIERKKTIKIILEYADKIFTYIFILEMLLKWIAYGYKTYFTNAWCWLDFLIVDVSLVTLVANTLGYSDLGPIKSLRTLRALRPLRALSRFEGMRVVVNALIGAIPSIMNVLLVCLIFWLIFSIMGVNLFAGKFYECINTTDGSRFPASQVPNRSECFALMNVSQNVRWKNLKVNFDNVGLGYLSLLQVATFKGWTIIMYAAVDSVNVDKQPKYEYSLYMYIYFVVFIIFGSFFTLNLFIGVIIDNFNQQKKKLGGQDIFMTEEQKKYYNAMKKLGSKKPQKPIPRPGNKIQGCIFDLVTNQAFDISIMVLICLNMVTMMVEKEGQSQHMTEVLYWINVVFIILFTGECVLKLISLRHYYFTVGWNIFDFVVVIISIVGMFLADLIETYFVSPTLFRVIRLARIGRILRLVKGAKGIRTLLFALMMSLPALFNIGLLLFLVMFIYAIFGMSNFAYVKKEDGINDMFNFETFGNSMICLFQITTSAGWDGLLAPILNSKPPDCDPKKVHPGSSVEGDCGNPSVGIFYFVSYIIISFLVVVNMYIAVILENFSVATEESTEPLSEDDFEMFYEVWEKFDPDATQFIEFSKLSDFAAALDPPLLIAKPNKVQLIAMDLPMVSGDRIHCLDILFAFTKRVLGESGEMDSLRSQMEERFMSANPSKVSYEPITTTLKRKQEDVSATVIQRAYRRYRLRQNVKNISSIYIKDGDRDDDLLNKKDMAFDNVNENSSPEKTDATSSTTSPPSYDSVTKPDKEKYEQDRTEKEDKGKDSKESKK
Target sequence in this assay (Q07699 whole entry partner, looked up): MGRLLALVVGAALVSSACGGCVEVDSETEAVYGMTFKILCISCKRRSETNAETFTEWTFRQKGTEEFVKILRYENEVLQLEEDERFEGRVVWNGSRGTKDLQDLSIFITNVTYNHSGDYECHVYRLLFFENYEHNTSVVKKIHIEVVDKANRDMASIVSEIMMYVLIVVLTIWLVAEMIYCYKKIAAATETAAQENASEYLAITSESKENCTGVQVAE

Assay [2] deals with T1, hNav1.7. Put plainly: Electrophysiological assay (EP), voltage clamp on Syncropatch 384PE, CHO cells stably expressing Nav1.7. It is filed as cell-based. The conditions noted are these: holding potential −50 mV, 7.5 min compound incubation, read-out: EP_SP hNav1.7 EVO IC50. From the text:
Example 93C. Electrophysiological Assay (EP) (In Vitro Assay)
Patch voltage clamp electrophysiology allows for the direct measurement and quantification of block of voltage-gated sodium channels (NaV's), and allows the determination of the time- and voltage-dependence of block which has been interpreted as differential binding to the resting, open, and inactivated states of the sodium channel (Hille, B., Journal of General Physiology (1977), 69: 497-515).
The following voltage clamp electrophysiology studies are performed on representative compounds using cells heterologously expressing Nav1.7 or Nav1.5 channels. cDNAsfor Nav1.7 (NM_002977) and Nav1.5 (AC137587) are stably expressed in Chinese Hamstr Ovary (CHO) cells and CHL (Chinese Hamster Lung) cells respectively. Sodium currents are measured in the whole-cell configuration using Syncropatch 384PE (Nanlon Technologies, Germany). 1NPC®-384 chips with custom medium resistance and single hole mode are used. Internal solution consists of (in mM): […], 10 […], 20 EGTA, and 10 Hepes (pH adjusted to 7.2); and external solution contains (in mM): 60 NMDG, 80 NaCl, 4 KCl, 1 MgCl2, 2 CaCl2, 2 D-Glucose monohydrate, 10 Hepes (pH adjusted to 7.4 with NaOH).
After system flushing, testing compounds are dissolved in external solution containing 0.1% Pluronic F-127. The chip is moved into the measuring head and the instrument primes the chip with external and internal solutions. 10 μl cells are added to the chip from a cell hotel, and a negative pressure of −50 mBar is applied to form a seal. Following treatment with seal enhancer solution and wash-off with external solution, negative pressure of −250 mbar is applied for 1 second to achieve the whole-cell configuration, followed by three washing steps in external solution. 20 μl of compounds is added to 40 μl in each well (1:3 dilution of compounds), and after mixing, 20 μl is removed so the volume is retained at 40 μl. After approximately 13 minutes recordings, 20 μl/well of 2 uM TTX, or 333 uM Tetracaine (for Nav1.5) is added to achieve full block.
For voltage protocol, an holding potential of −50 mV is applied during the whole experiment. A depolarizing step is applied to −10 mV for 10 ms, followed by a hyperpolarization step to −150 mV for 20 ms to allow channel recovery from inactivation. A second depolarizing step is applied from −150 mV to −10 mV for 10 ms, where currents are measured to derive blocking effects of compounds. Inhibition is determined based on 7.5 min of compound incubation.
Target sequence in this assay (Q15858 other isoform, or with tags, fused parts or gaps): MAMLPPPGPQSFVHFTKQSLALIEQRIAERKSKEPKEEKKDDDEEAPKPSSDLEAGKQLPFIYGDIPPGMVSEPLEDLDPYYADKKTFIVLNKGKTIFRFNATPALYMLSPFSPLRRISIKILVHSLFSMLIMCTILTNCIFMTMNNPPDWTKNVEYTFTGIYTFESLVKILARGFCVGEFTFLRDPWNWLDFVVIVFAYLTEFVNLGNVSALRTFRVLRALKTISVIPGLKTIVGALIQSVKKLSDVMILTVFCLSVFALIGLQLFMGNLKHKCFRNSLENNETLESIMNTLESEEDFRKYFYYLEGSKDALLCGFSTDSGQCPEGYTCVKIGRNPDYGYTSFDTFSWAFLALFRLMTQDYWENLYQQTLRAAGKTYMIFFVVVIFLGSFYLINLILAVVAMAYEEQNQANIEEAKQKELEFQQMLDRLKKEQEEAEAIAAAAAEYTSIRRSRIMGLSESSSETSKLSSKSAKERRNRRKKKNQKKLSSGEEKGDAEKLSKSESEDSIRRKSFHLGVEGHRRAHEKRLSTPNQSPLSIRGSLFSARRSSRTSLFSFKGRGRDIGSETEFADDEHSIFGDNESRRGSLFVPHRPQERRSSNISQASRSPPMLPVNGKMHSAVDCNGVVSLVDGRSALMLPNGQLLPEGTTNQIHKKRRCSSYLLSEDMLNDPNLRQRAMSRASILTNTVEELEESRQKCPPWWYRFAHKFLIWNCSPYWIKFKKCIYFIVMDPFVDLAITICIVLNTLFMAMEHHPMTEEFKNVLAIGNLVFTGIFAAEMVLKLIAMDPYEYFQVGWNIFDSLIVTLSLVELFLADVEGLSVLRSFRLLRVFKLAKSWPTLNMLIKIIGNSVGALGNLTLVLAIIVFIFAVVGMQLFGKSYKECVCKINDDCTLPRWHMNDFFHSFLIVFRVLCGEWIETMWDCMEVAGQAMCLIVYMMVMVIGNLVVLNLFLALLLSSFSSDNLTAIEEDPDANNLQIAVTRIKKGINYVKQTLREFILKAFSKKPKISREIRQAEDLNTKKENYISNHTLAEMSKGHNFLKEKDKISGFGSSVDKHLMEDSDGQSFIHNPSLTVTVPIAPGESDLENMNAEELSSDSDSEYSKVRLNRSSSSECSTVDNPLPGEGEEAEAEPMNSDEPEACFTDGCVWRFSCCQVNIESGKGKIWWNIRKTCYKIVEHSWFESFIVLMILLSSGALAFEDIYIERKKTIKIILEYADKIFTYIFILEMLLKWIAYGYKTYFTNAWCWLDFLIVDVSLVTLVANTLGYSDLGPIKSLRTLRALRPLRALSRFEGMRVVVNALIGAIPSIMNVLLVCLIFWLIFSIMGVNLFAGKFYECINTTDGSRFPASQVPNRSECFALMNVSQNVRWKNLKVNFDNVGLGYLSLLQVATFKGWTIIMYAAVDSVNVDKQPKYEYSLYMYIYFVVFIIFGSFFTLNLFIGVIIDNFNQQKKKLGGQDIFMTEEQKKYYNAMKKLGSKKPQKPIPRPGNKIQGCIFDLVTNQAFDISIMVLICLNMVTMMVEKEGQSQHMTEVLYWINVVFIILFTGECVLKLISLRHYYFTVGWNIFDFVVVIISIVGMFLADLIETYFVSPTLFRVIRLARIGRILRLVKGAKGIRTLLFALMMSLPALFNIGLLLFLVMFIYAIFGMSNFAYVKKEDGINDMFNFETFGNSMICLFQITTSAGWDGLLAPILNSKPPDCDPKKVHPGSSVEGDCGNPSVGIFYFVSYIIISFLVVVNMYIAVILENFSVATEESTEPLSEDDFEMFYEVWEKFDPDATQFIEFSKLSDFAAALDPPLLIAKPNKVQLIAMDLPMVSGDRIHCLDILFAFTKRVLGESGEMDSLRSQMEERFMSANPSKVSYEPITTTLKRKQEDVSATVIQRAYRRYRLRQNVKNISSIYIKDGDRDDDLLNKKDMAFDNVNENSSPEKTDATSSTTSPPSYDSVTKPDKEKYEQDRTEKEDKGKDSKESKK

Results on 15 molecules are retold here after patent publication US11028075B2, “Therapeutic compounds and methods of use thereof” (GENENTECH, INC., priority 2018, dated 2021).

Where a name gives a salt, the structure may show the parent alone.

As for “5-Chloro-4-(((1S,3R,4R,6R)-7,7-dichloro-4-(dimethylamino)-6-(3-(trifluoromethyl)-phenyl)bicyclo[4.1.0]heptan-3-yl)amino)-2-fluoro-N-(pyrimidin-4-yl)benzenesulfonamide [Example 53]”, the IC50 on hNav1.7 [1] amounted to 46.2 nM; at hNav1.7 [2] it was 1.86 nM. On to `CN(C)[C@H]1C[C@@H](c2cccc(OC(F)(F)F)c2)CC[C@@H]1Nc1cc(F)c(S(=O)(=O)Nc2ccncn2)cc1F` [Example 19, 4-(((1S,2S,4S)-2-(dimethylamino)-4-(3-(trifluoromethoxy)phenyl)cyclohexyl)amino)-2,5-difluoro-N-(pyrimidin-4-yl)benzenesulfonamide], for which the IC50 is 1.36 nM at hNav1.7 [1] and 0.673 nM at hNav1.7 [2]. For `CN(C)[C@H]1C[C@@H](Cc2cccc(C(F)(F)F)c2)CC[C@@H]1Nc1cc(F)c(S(=O)(=O)Nc2ccncn2)cc1Cl` [Example 8, 5-chloro-4-(((1S,2S,4R)-2-(dimethylamino)-4-(3-(trifluoromethyl)benzyl)cyclohexyl)amino)-2-fluoro-N-(pyrimidin-4-yl)benzenesulfonamide], in that order: 6.45 nM and 0.991 nM. As for `O=S(=O)(Nc1ccncn1)c1cc(F)c(N[C@H]2CC[C@H](c3cccc(OC(F)(F)F)c3)C[C@@H]2N2CCCC2)cc1F` [Example 61, 2,5-difluoro-N-(pyrimidin-4-yl)-4-(((1S,2S,4S)-2-(pyrrolidin-1-yl)-4-(3-(trifluoromethoxy)-phenyl)cyclohexyl)amino)benzenesulfonamide formate], the IC50 was determined as 1.54 nM at hNav1.7 [1] and 0.322 nM on hNav1.7 [2]. For `CN(C)[C@H]1C[C@@H](c2cccc(C(C)(F)F)c2)CC[C@@H]1Nc1cc(F)c(S(=O)(=O)Nc2ccncn2)cc1Cl` [Example 32, 5-chloro-4-(((1S,2S,4S)-4-(3-(1,1-difluoroethyl)phenyl)-2-(dimethylamino)-cyclohexyl)-amino)-2-fluoro-N-(pyrimidin-4-yl)benzenesulfonamide], in that order: 2.04 nM and 1.6 nM.

For `CN(C)[C@H]1C[C@@H](c2cccc(F)c2)CC[C@@H]1Nc1cc(F)c(S(=O)(=O)Nc2ccncn2)cc1Cl` [Example 26, 5-Chloro-4-(((1S,2S,4S)-2-(dimethylamino)-4-(3-fluorophenyl)cyclohexyl)amino)-2-fluoro-N-(pyrimidin-4-yl)benzenesulfonamide formate], the results for the IC50 at hNav1.7 [1] and on hNav1.7 [2] were 11.8 nM and 2.97 nM, respectively. With `CN(C)[C@H]1C[C@@H](c2cccc(C(C)(F)F)c2)CC[C@@H]1Oc1cc(F)c(S(=O)(=O)Nc2ccncn2)cc1Cl` [Example 91, 5-chloro-4-(((1S,2S,4S)-4-(3-(1,1-difluoroethyl)phenyl)-2-(dimethylamino)cyclohexyl)oxy)-2-fluoro-N-(pyrimidin-4-yl)benzenesulfonamide], the half-inhibitory concentration (IC50) is 6.13 nM on hNav1.7 [1] and 1.2 nM on hNav1.7 [2]. For `CN(C)[C@H]1C[C@@H](c2ccc(Cl)c(C(F)(F)F)c2)CC[C@@H]1Nc1cc(F)c(S(=O)(=O)Nc2ccncn2)cc1Cl` [Example 7], in that order: 0.52 nM and 0.327 nM. For `CN(C)[C@H]1C[C@@H](c2cccc(C(F)(F)F)c2)CC[C@@H]1N1C(=O)CCc2cc(S(=O)(=O)Nc3ccncn3)c(F)cc21` [Example 55, 1-((1S,2S,4S)-2-(Dimethylamino)-4-(3-(trifluoromethyl)phenyl)cyclohexyl)-7-fluoro-2-oxo-N-(pyrimidin-4-yl)-1,2,3,4-tetrahydroquinoline-6-sulfonamide], in that order: 6.73 nM and 2.68 nM. As for `CN(C)[C@H]1C[C@@H](c2cccc(C(F)(F)F)c2)CC[C@@H]1N1C(=O)COc2cc(S(=O)(=O)Nc3ccncn3)c(F)cc21` [Example 1, 4-((1S,2S,4S)-2-(Dimethylamino)-4-(3-(trifluoromethyl)phenyl)cyclohexyl)-6-fluoro-3-oxo-N-(pyrimidin-4-yl)-3,4-dihydro-2H-benzo[b][1,4]oxazine-7-sulfonamide formate], the IC50 was 18.8 nM on hNav1.7 [1] and 3.13 nM at hNav1.7 [2]. For `Cc1cccc([C@H]2CC[C@H](Nc3cc(F)c(S(=O)(=O)Nc4ccncn4)cc3Cl)[C@@H](N(C)C)C2)c1` [Example 11, 5-Chloro-4-(((1S,2S,4S)-2-(dimethylamino)-4-(m-tolyl)cyclohexyl)amino)-2-fluoro-N-(pyrimidin-4-yl)benzenesulfonamide formate], in that order: 7.57 nM and 1.64 nM. For `CN(C)[C@H]1C[C@@H](c2cc(Cl)cc(Cl)c2)CC[C@@H]1Oc1cc(F)c(S(=O)(=O)Nc2ccncn2)cc1Cl` [Example 82, 5-chloro-4-(((1S,2S,4S)-4-(3,5-dichlorophenyl)-2-(dimethylamino)cyclohexyl)oxy)-2-fluoro-N-(pyrimidin-4-yl)benzenesulfonamide formate], in that order: 1.57 nM and 0.355 nM. For `O=S(=O)(Nc1ccncn1)c1cc(F)c(N[C@H]2CC[C@H](c3cccc(C(F)(F)F)c3)C[C@@H]2N2CCCC2)cc1F` [Example 23, 2,5-difluoro-N-(pyrimidin-4-yl)-4-(((1S,2S,4S)-2-(pyrrolidin-1-yl)-4-(3-(trifluoromethyl)-phenyl)cyclohexyl)amino)benzenesulfonamide formate], in that order: 1.21 nM and 1.63 nM. Turning to `O=S(=O)(Nc1ccncn1)c1cc(Cl)c(O[C@H]2CC[C@H](c3cccc(C(F)(F)F)c3)C[C@@H]2N2CCC(O)C2)cc1F` (stereo partly shown) [Example 90, formate], the IC50 on hNav1.7 [2] came out at 0.57 nM. Take `CN(C)[C@H]1C[C@@H](c2cccc(C(F)(F)F)c2)CC[C@@H]1Nc1ccc(S(=O)(=O)Nc2ccncn2)cc1F` [Example 89, 4-(((1S,2S,4S)-2-(Dimethylamino)-4-(3-(trifluoromethyl)phenyl)cyclohexyl)amino)-3-fluoro-N-(pyrimidin-4-yl)benzenesulfonamide formate]: the IC50 at hNav1.7 [1] is 12.4 nM.

The term IC50 denotes the concentration that inhibits the measured activity by half.
